Experimental data reported in US10975016B2, “Solvent compounds for use as glycol ether replacements” (TBF ENVIRONMENTAL TECHNOLOGY INC., priority 2017, dated 2021).

Key:
[1] = XBC vs Dipropylene Glycol Methyl Ether (DPM) in acrylic modified epoxy ester based paint: physical and coating properties; details: for Specific Gravity: acrylic modified epoxy ester (Epotuf 38-698) based paint; for VOC (Without Water) / Viscosity / Volume Solid % / Weight Solid %: acrylic modified epoxy ester based paint
Description: The properties of XBC4, in comparison to dipropylene glycol methyl ether (DPM), in an acrylic-modified epoxy ester-based paint were determined to be as follows: […]

[2] = VOC (calculated) of water-based paint formulas; assay type: physicochemical; details: water-based paints, substituted for propylene glycol
Description: Bis(2-ButoxyEthyl Carbonate) was tested in a number of water-based flat paints, as follows. Water was added to a container and the additives were added. The container was placed under a high speed disperser and mixed under slow speed. Natrosol™ hydroxyethylcellulose was added slowly and allowed to mix for 10 minutes increasing speed as needed. The pigments were then added, slowly increasing speed and water as needed. After the pigments were added, the speed was increased to about 2800 rpms. After 10 to 15 minutes the speed was reduced to about 1000 rpms. The latex was added slowly into the vortex. The rest of the water and other additives (depending on the formulation) were then added and allowed to mix for 5 minutes.
In some tests, bis(2-ButoxyEthyl Carbonate) was substituted for propylene glycol to evaluate its effectiveness in replacing propylene glycol to create a lower VOC and lower toxicity material.

[3] = Physical/chemical properties of XBC4 (GlykoSol)

SMILES: COC(C)COC(C)CO (stereo not drawn) [DPM, dipropylene glycol methyl ether, reference compound]
- Specific Gravity [1]: 1.23 g/cm3
- VOC (Without Water) [1]: 110 g/L
- Viscosity [1]: 90 KU
- Volume Solid % [1]: 35.5%
- Weight Solid % [1]: 46.9%

SMILES: CCCCOCCOC(=O)OCCOCCCC [XBC4, bis(2-ButoxyEthyl Carbonate)]
- Specific Gravity [1]: 1.23 g/cm3
- VOC (Without Water) [1]: 34 g/L
- Viscosity [1]: 90 KU
- Volume Solid % [1]: 35.5%
- Weight Solid % [1]: 46.9%
- VOC of paint after replacement of propylene glycol [2]: far lower or zero (0) VOC materials
- Auto Ignition Temp [3]: 305 (581° F.) ° C.
- Boiling Point [3]: 297 (566.6° F.) ° C.
- Butyl Cellosolve Solubility [3]: Soluble
- Clarity [3]: Clear
- Colour (Alpha, max) [3]: 10 (Clear)
- Flashpoint [3]: 146.1 (295° F.) ° C.
- Odor [3]: No Odor
- Partial Coefficient (Range) [3]: 1.9-3.0
- Volatility (%) [3]: 100%
- Water Solubility [3]: Not Soluble
- Specific Gravity ([3]; @15.5° C.): 0.985
- Density ([3]; @ 20° C.): 0.980 (8.22 lbs/gal) g/mL
- Solubility in H2O ([3]; @ 25° C.): Partially Soluble
- Vapour Pressure ([3]; @ 25° C.): 0.008 mm Hg
- Viscosity ([3]; @ 25° C.): 0.60 cP
- VOC ([3]; ASTM 313-91): 0 g/L
- Vapour Density (Air = 1) ([3]; Air = 1): 0.95
- TGA Weight Loss ([3]; Range 115-240°): 99.47%
- Evaporation Rate (n-Butyl Acetate = 1) ([3]; n-Butyl Acetate = 1): 0.01
